According to ChEMBL document CHEMBL1201862, “PubChem BioAssay data set” (2004):
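Exposure lasted 48 hours, with cells grown in 96-well plates and compounds tested at five concentrations. GI50 marks 50% less growth.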 Active and inactive are the calls of the source. No stated cut-off is given here; in the data, active = GI50 up to about 1.1 µM and inactive = higher. Starred links: 1 amine or outer side, 2 acyl side, 3 side chain; linkers in the order of their positions; H or OH if unused. Positions of bridges follow the written chain, without caps; N, C: chain ends. Non-standard residues stand in square brackets, D forms with d. Residues, ends and D or L forms follow the SMILES beside them. Chains are numbered I, II in the order given. Actinocin(1to9) = Cc1c2oc3c(C)ccc(C(=O)[*:2])c3nc-2c(C(=O)[*:1])c(N)c1=O; aThr = C[C@H](O)[C@H](N)C(=O)O; NMeV = CN[C@H](C(=O)O)C(C)C; Sar = CNCC(=O)O

Columns and labels:
Experiment in all cases: growth of human tumour cells (NCI), 48 h
A498 = system: A498
A549 = system: A549
BT-549 = system: BT-549
DMS-273 = system: DMS-273
HL-60 = system: HL-60
HT-29 = system: HT-29
KM12 = system: KM12
LOX IMVI = system: LOX IMVI
MCF7 = system: MCF7
MDA-MB-231 = system: MDA-MB-231
NCI-H226 = system: NCI-H226
OVCAR-3 = system: OVCAR-3
OVCAR-8 = system: OVCAR-8
SF-268 = system: SF-268
SK-OV-3 = system: SK-OV-3
SNB-19 = system: SNB-19
SNB-75 = system: SNB-75
SW-620 = system: SW-620
T47D = system: T47D
UO-31 = system: UO-31

| Structure (SMILES) | GI50 (A498) | GI50 (A549) | GI50 (BT-549) | GI50 (DMS-273) | GI50 (HL-60) | GI50 (HT-29) | GI50 (KM12) | GI50 (LOX IMVI) | GI50 (MCF7) | GI50 (MDA-MB-231) | GI50 (NCI-H226) | GI50 (OVCAR-3) | GI50 (OVCAR-8) | GI50 (SF-268) | GI50 (SK-OV-3) | GI50 (SNB-19) | GI50 (SNB-75) | GI50 (SW-620) | GI50 (T47D) | GI50 (UO-31) |
| --- | --- | --- | --- | --- | --- | --- | --- | --- | --- | --- | --- | --- | --- | --- | --- | --- | --- | --- | --- | --- |
| Cc1ccc(OC(=O)N2C/C(=C\c3ccccc3)C(=O)/C(=C/c3ccccc3)C2)cc1 | > 66.5 µM (inactive) | > 69.5 µM (inactive) | 29 µM (inactive) | 4.83 µM (inactive) | 3.84 µM (inactive) | 4.93 µM (inactive) | 16.2 µM (inactive) | 3.29 µM (inactive) | 5.14 µM (inactive) | 26.7 µM (inactive) | 56.5 µM (inactive) | 25.6 µM (inactive) | 19.6 µM (inactive) | 34.1 µM (inactive) | 41.3 µM (inactive) | 43.5 µM (inactive) | 23 µM (inactive) | 4.47 µM (inactive) | > 100 µM (inactive) | 36.9 µM (inactive) |
| Cc1c2oc3c(C)ccc(C(=O)N[C@@H]4C(=O)N[C@H](C(C)C)C(=O)N5CCC[C@H]5C(=O)N(C)CC(=O)N(C)[C@@H](C(C)C)C(=O)O[C@H]4C)c3nc-2c(C(=O)N[C@@H]2C(=O)N[C@H](C(C)C)C(=O)N3CCC[C@H]3C(=O)N(C)CC(=O)N(C)[C@@H](C(C)C)C(=O)O[C@H]2C)c(N)c1=O (I: [aThr][dV]P[Sar][NMeV] / II: [aThr][dV]P[Sar][NMeV]; ester I:1-I:C, II:1-II:C; linker I:N-II:N via Actinocin(1to9)) | 0.00299 µM (active) | 0.00206 µM (active) | 0.00169 µM (active) | 0.00031 µM (active) | 0.00231 µM (active) | 0.000759 µM (active) | 0.00128 µM (active) | 0.000518 µM (active) | 0.000189 µM (active) | 0.00455 µM (active) | 0.00195 µM (active) | 0.00361 µM (active) | 0.00165 µM (active) | 0.00148 µM (active) | 0.00869 µM (active) | 0.00161 µM (active) | 0.0023 µM (active) | 0.000489 µM (active) | 0.000628 µM (active) | 0.015 µM (active) |
